Assay results taken from patent US20060135569A1, “Use of benzisoselenazolone compounds against ischemic myocardial damage” (priority 2002, published 2006).
Marks after values point to notes of the source that are not given here.

What was measured:
TA102 = assay: Ames test, strain TA102; format: cell-based
Protocol: (§1) To assess the mutagenic effects of 5 compounds (IMM-004; IMM-065; IMM-127; IMM-128; IMM-313), the Ames test was performed in 4 strains (TA97; TA98; TA100; TA102). The experiment was conducted with compounds at 4 concentration levels (0.5, 5, 50 and 500 μg/dish). […]

TA97; TA98; TA100; TA102 = assay: Ames (mutagenesis) test, overall result in 4 strains; format: cell-based; settings: 0.5, 5, 50 and 500 μg/dish
Protocol: as §1

[1] = test system: arrhythmia caused by ischemia/reperfusion insults in anaesthetic rats; assay: Ischemia/reperfusion arrhythmia in anaesthetic rats, intravenous injection; format: in vivo, rat; settings: 3 mg/Kg intravenous (femoral vein), rats
Source text: (1) Protective Effects of the Tested Compounds on Myocardial Insults in Rats after Intravenously Injection
Arrhythmic potency induced by myocardial insults was used to assess the potential protective effect of the compounds.

TA100 = assay: Ames test, strain TA100; format: cell-based
Protocol: as §1

[2] = test system: isolated rat hearts subjected to ischemia-reperfusion (I/R); assay: Isolated heart subjected to ischemia/reperfusion injury (arrhythmia); settings: for AAT: arrhythmic occurrence time, Time / VF (ventricular fibrillation) Incidence rate (%) / VPS (ventricular premature beats) Incidence rate (%) / VT (ventricular tachycardia) Incidence rate (%): 10^−6 M, isolated heart ischemia/reperfusion
Protocol: Based on the pre-electrophysiological cell model screening, we have compared the inhibition ratios of the outward current by reverse-transportation of Na^+/Ca^2+ exchange, and further in vitro tests on isolated rat hearts subjected to ischemia-reperfusion (I/R) were conducted. Prolongation of ventricular arrhythmic, incidence rate of ventricular extrasystole, ventricular tachycardia/ventricular fibrillation (VT/VF) were recorded to evaluate the protective actions of drugs on myocardial injury.
On the basis of above screening results obtained from electrophysiological studies, and the result from comparative study on the research of the inhibitory effect of compounds on reverse mode Na^+/Ca^2+ exchange process, 7 effective compounds were subjected to in vitro study. Among which, IMM-313, IMM-004 and IMM-132 have structures containing chlorine; IMM-127, IMM-128 and IMM-129 have structures containing fluorine; and IMM-065 has a structure containing OH. The experiment performed in the isolated heart subjected to ischemia/reprefusion insult. Prolongation of ventricular arrhythmic, incidence of ventricular extrasystole, ventricular tachycardia/ventricular fibrillation (VT/VF) were recorded in order to evaluate the protective actions of drugs on myocardial injury.

TA98 = assay: Ames test, strain TA98; format: cell-based
Protocol: as §1

TA97 = assay: Ames test, strain TA97; format: cell-based
Protocol: as §1

Na^+/Ca^2+ exchanger = molecular target: T1, Na^+/Ca^2+ exchanger (Cavia porcellus, UniProt P48766); assay: Na^+/Ca^2+ exchange current (INa—Ca), whole-cell patch clamp, intracellular Na^+ overload cell model; format: cell-based, guinea pig
T1 construct: endogenous in cells; host or cells: freshly isolated guinea pig ventricular myocytes
Source text: 1. Establishment of Assaying Method for Biphasical Current Detection in Na^+/Ca^2+ Exchange System
Since the reverse mode of Na^+/Ca^2+ exchange process is one of the main mechanisms involving in ischemia/reperfusion insult, it is of great importance to establish cell model represented reverse mode Na^+/Ca^2+ exchange process for the development of drugs against ischemic injury. Therefore, we successfully established cell model of reverse mode Na^+/Ca^2+ exchange system by intracellular Na^+ dialysis technique, and recorded Na^+/Ca^2+ exchange currents by patch clamp experiment.
Internal solution contained certain concentration of NaCl was filled to the microcatheter, and ion exchange process between the cellular and internal solutions was conducted after whole cell currents were recorded by patch clamp. Na^+ contained in the internal solution was dialyzed into the cell; result in the high intracellular Na^+ concentration. After that, the cell was champed at a holding potential of −40 mV, then depolarized to +60 mV and followed by a conversely declining ramp stimuli at a speed of 80 mV·s^−1 and 2 s conditioning pulse, then repolarized to −100 mV with a frequency of 0.05 Hz. Under the stimulation protocol, current from outward to the inward direction was recorded by perfusing modified biphasical Tyrode solution (in which the outward and inward currents can be recorded simultaneously) with the addition of 1 mmol·L^−1 of BaCl2 and 2 mmol·L^−1 of CsCl to block K^+ channels, 1 μmol·L^−1 of verapamil to block L-type Ca^2+ channels, and 20 μmol·L^−1 of ouabain to block Na^+/K^+ ATPase, and 20 mmol·L^−1 of TEA to block potassium channels. The recorded inward currents were presented in a linear manner owing to the blockade of other time-dependent currents. With the increase of intracellular Na^+ level and prolongation of time, the reverse mode of Na^+/Ca^2+ exchange process was activated. […] Under such experimental conditioning, the maximum reverse mode current was recorded 3 min after cell crushed. No significant “run-down” was observed within the record period of 8 minutes. The inward and outward current were inhibited by 5 mmol·L^−1 of Ni^2+ treatment, and the experiment result in two current-voltage curves in the absence or presence of Ni^2+. The Ni^2+ sensitive current, also called electrophysiological Na^+/Ca^2+ exchange current (INa·Ca), was the minus result of two current-voltage curves. The reverse mode potential of INa—Ca was about −20 mV
Male guinea pigs weighting 250˜280 g provided by the Animal Center of the Chinese Academy of Medical Sciences were hammered and sacrificed. The chest was opened and the heart was removed quickly. Fatty tissue and pericardium were removed in a Ca^2+-free solution at 4° C., and heart was sequentially mounted on a Langendorff apparatus. First, the heart was perfused conversely via the aorta for 6 min with Ca^2+-free solution in order to wash out residual blood, then the heart expands and the color of it turns to pink. Then the heart was perfused with Ca^2+-free solution containing 0.1 mg/ml of pronase E, 0.5 mg/ml defatted bovine serum albumin (BSA) and 150 μM Ca^2+ for 2˜3 min, until the heart expanded and became soft. The atrium was removed, and the digested heart was minced with scissors, stirred in a beaker at 37° C. for 5˜10 min. The supernatant was diluted with Ca^2+-free solution containing 0.5 mg/ml BSA and 1.8 mM Ca^2+. The supernatant was placed at room temperature (20˜24° C.) for 1 hr and then subjected to the experiment. During the whole perfusion period, pressure was kept at 70 cmH2O and the temperature of solution was kept at 37° C. with continuously gassed with 95% O2 and 5% CO2.
Rod-shaped cells with clear striations and intact membrane were used. […]

[3] = Example 1 table, myocardial cell
[4] = screening of 22 candidate compounds

`C/C(=N\O)c1ccc(-n2[se]c3ccccc3c2=O)cc1` [IMM-065] was tested, and the “TA102 +S9” value (TA102; 0.5 μg/dish) was 270.00 ± 10.00, the “TA102 −S9” value (TA102; 0.5 μg/dish) was 244.00 ± 12.33 and the “TA102 +S9” value (TA102; 5 μg/dish) was 308.00 ± 31.16. For the same compound, the “TA102 −S9” value (TA102; 5 μg/dish) was 246.00 ± 24.00, the “TA102 +S9” value (TA102; 50 μg/dish) was 339.33 ± 48.99 and the “TA102 −S9” value (TA102; 50 μg/dish) was 217.33 ± 15.43. The “TA102 +S9” value (TA102; 500 μg/dish) was 287.33 ± 41.89, the “TA102 −S9” value (TA102; 500 μg/dish) was 215.00 ± 75.59 and the “mutagenic effect (Ames test)” value (TA97; TA98; TA100; TA102) was “No evidence for a mutagenic effect”. For the same compound, the “incidence and duration of VT, VF, VE / ventricular arrhythmic” value [1] was “no significant effect”, the “TA100 +S9” value (TA100; 0.5 μg/dish) was 176.67 ± 24.57 and the “TA100 −S9” value (TA100; 0.5 μg/dish) was 153.67 ± 13.47. The “TA100 +S9” value (TA100; 5 μg/dish) was 167.00 ± 58.86, the “TA100 −S9” value (TA100; 5 μg/dish) was 60.33 ± 19.91 and the “TA100 +S9” value (TA100; 50 μg/dish) was 180.33 ± 29.83. The “TA100 −S9” value (TA100; 50 μg/dish) was 108.67 ± 6.79, the “TA100 +S9” value (TA100; 500 μg/dish) was 0 and the “TA100 −S9” value (TA100; 500 μg/dish) was 62.33 ± 20.53. For the same compound, the “protective effects on myocardial insults” value ([2]; 10^−6M, isolated heart) was “significant protective effects”, the “AAT: arrhythmic occurrence time, Time” value [2] was 13.09 ± 3.76 min and the “VF (ventricular fibrillation) Incidence rate (%)” value [2] was 50%. The “VPS (ventricular premature beats) Incidence rate (%)” value [2] was 30%, the “VT (ventricular tachycardia) Incidence rate (%)” value [2] was 70% and the “TA98 +S9” value (TA98; 0.5 μg/dish) was 56.50 ± 4.50. For the same compound, the “TA98 −S9” value (TA98; 0.5 μg/dish) was 52.00 ± 3.74, the “TA98 +S9” value (TA98; 5 μg/dish) was 61.67 ± 11.15 and the “TA98 −S9” value (TA98; 5 μg/dish) was 42.00 ± 10.80. The “TA98 +S9” value (TA98; 50 μg/dish) was 42.00 ± 5.72, the “TA98 −S9” value (TA98; 50 μg/dish) was 45.33 ± 5.44 and the “TA98 +S9” value (TA98; 500 μg/dish) was 168.00 ± 32.00. The “TA98 −S9” value (TA98; 500 μg/dish) was 54.00 ± 12.83, the “TA97 +S9” value (TA97; 0.5 μg/dish) was 249.33 ± 35.83 and the “TA97 −S9” value (TA97; 0.5 μg/dish) was 62.67 ± 4.49. For the same compound, the “TA97 +S9” value (TA97; 5 μg/dish) was 76.00 ± 15.29, the “TA97 −S9” value (TA97; 5 μg/dish) was 73.67 ± 6.64 and the “TA97 +S9” value (TA97; 50 μg/dish) was 82.67 ± 12.92. For the same compound, the “TA97 −S9” value (TA97; 50 μg/dish) was 69.67 ± 3.77, the “TA97 +S9” value (TA97; 500 μg/dish) was 0 and the “TA97 −S9” value (TA97; 500 μg/dish) was 59.67 ± 0.94. The “Inhibitory rate of inward INa—Ca (%)” value (Na^+/Ca^2+ exchanger; [3]) was 43%, the “Inhibitory rate of outward INa—Ca (%)” value (Na^+/Ca^2+ exchanger; [3]) was 55% and the “Inhibitory rate of inward INa—Ca (%)” value (Na^+/Ca^2+ exchanger; [4]) was 43%. For the same compound, the “Inhibitory rate of outward INa—Ca (%)” value (Na^+/Ca^2+ exchanger; [4]) was 55* %.
For `O=c1c2cc(F)ccc2[se]n1-c1cccnc1` [IMM-128, 5-fluoro-2-(3-pyridyl)-1,2-benz-isoselenazol-3(2H)-one], the “TA102 +S9” value (TA102; 0.5 μg/dish) was 277.33 ± 15.17, the “TA102 −S9” value (TA102; 0.5 μg/dish) was 214.67 ± 8.22 and the “TA102 +S9” value (TA102; 5 μg/dish) was 234.67 ± 80.37. For the same compound, the “TA102 −S9” value (TA102; 5 μg/dish) was 270.67 ± 12.04, the “TA102 +S9” value (TA102; 50 μg/dish) was 333.00 ± 60.83 and the “TA102 −S9” value (TA102; 50 μg/dish) was 210.00 ± 31.54. For the same compound, the “TA102 +S9” value (TA102; 500 μg/dish) was 274.00 ± 37.98, the “TA102 −S9” value (TA102; 500 μg/dish) was 296.00 ± 22.86 and the “mutagenic effect (Ames test)” value (TA97; TA98; TA100; TA102) was “No evidence for a mutagenic effect”. For the same compound, the “TA100 +S9” value (TA100; 0.5 μg/dish) was 167.33 ± 17.98, the “TA100 −S9” value (TA100; 0.5 μg/dish) was 127.33 ± 20.04 and the “TA100 +S9” value (TA100; 5 μg/dish) was 149.67 ± 19.60. For the same compound, the “TA100 −S9” value (TA100; 5 μg/dish) was 116.50 ± 30.50, the “TA100 +S9” value (TA100; 50 μg/dish) was 141.33 ± 16.36 and the “TA100 −S9” value (TA100; 50 μg/dish) was 135.00 ± 14.99. For the same compound, the “TA100 +S9” value (TA100; 500 μg/dish) was 107.67 ± 13.47, the “TA100 −S9” value (TA100; 500 μg/dish) was 100.00 ± 33.67 and the “AAT: arrhythmic occurrence time, Time” value [2] was 22.10 ± 3.49 min. The “VF (ventricular fibrillation) Incidence rate (%)” value [2] was 50%, the “VPS (ventricular premature beats) Incidence rate (%)” value [2] was 25% and the “VT (ventricular tachycardia) Incidence rate (%)” value [2] was 50%. The “TA98 +S9” value (TA98; 0.5 μg/dish) was 40.67 ± 16.05, the “TA98 −S9” value (TA98; 0.5 μg/dish) was 64.00 ± 6.48 and the “TA98 +S9” value (TA98; 5 μg/dish) was 46.00 ± 3.00. For the same compound, the “TA98 −S9” value (TA98; 5 μg/dish) was 69.33 ± 12.81, the “TA98 +S9” value (TA98; 50 μg/dish) was 56.00 ± 9.63 and the “TA98 −S9” value (TA98; 50 μg/dish) was 71.33 ± 12.26. The “TA98 +S9” value (TA98; 500 μg/dish) was 31.33 ± 6.24, the “TA98 −S9” value (TA98; 500 μg/dish) was 83.67 ± 5.79 and the “TA97 +S9” value (TA97; 0.5 μg/dish) was 70.00 ± 11.86. For the same compound, the “TA97 −S9” value (TA97; 0.5 μg/dish) was 59.33 ± 10.27, the “TA97 +S9” value (TA97; 5 μg/dish) was 63.00 ± 31.00 and the “TA97 −S9” value (TA97; 5 μg/dish) was 52.67 ± 3.21. The “TA97 +S9” value (TA97; 50 μg/dish) was 60.33 ± 17.59, the “TA97 −S9” value (TA97; 50 μg/dish) was 59.00 ± 3.56 and the “TA97 +S9” value (TA97; 500 μg/dish) was 78.50 ± 21.50. The “TA97 −S9” value (TA97; 500 μg/dish) was 65.33 ± 2.35, the “Inhibitory rate of inward INa—Ca (%)” value (Na^+/Ca^2+ exchanger; [3]) was 42% and the “Inhibitory rate of outward INa—Ca (%)” value (Na^+/Ca^2+ exchanger; [3]) was 44%. The “Inhibitory rate of inward INa—Ca (%)” value (Na^+/Ca^2+ exchanger; [4]) was 42% and the “Inhibitory rate of outward INa—Ca (%)” value (Na^+/Ca^2+ exchanger; [4]) was 44* %.
